Data set [1] has as its system SW1990 pancreatic tumoral cell line. Nature of the data set: Combined effect of AV25CDC 5/3 and gemcitabine, MTT cell viability. The class given is cell-based, human. The note with it: alone or 24 h after virus at MOI 0.1, MTT six days later. The method, then:
FIG. 8. In vitro synergic effect of AV25CDC 5/3 and gemcitabine in pancreatic tumoral cell line SW1990. Cells were infected with AV25CDC 5/3, at a MOI of 0.1 and 24 hours later gemcitabine was added at concentrations of 0.01 uM and 0.1 uM. Six days later, cell viability was measured using MTT assay.
Pancreatic tumoral cell lines (SW1990) were plated and infected with AV25CDC 5/3, at a MOI of 0.1 and 24 hours later, gemcitabine was added in concentrations of 0.01 uM and 0.1 uM. Six days later, cell viability was measured using MTT assay. There was no decrease on viability if only AV25CDC 5/3 is used at a MOI of 0.1, as well as no decrease was found adding gemcitabine at 0.01 uM. Nevertheless, the combination of both produced a decrease in cell viability of 20%. Using a higher concentration of gemcitabine, of 0.1 uM, on its own produced a decrease in viability of 20%, but combined with AV25CDC 5/3 at a MOI of 0.1, the viability decrease of 40%, considering the control (FIG. 8).

Data set [2] can be described thus: Biochemical profile and Ca 19.9 tumoral marker of treated animals at day 40. The class given is in vivo, athymic mice N:NIH(S)-nu. The method, then: Also, to evaluate efficacy of AV25CDC 5/3, on orthotopic tumors caused by SW1990 cells, E4 expression was evaluated at day 40, where an average of […] viral particles were found in the tumor indicating an active replication. On the other hand, biochemical parameters were evaluated at day 40, determining amylase, total and direct bilirubin, alkaline phosphatase (ALP) and aspartate aminotransferase (AST).
Tumoral marker levels Ca 19.9 were also determined.

With `Nc1ccn([C@@H]2O[C@H](CO)[C@@H](O)C2(F)F)c(=O)n1` [gemcitabine], the cytotoxicity at 0.1 µM in data set [1] (Homo sapiens, gemcitabine 0.1 uM, vs control, read-out: decrease in cell viability) came to 20%. Besides, in data set [1] (gemcitabine 0.01 uM), the “decrease in cell viability” value was “no decrease”. In data set [2] (average ± SD, day 40), the ALP was 119.3 ± 25 U/L, the Amylase came to 1151 ± 386 U/L, the Direct bilirubin was 0.14 ± 0.02 mg/dL and the “GOT (AST)” value turned out to be 280 ± 64 U/L. Besides, in data set [2] (average ± SD, day 40), the “GPT (ALT)” value is 47 ± 17 U/L and the “Total Bilirubin” value amounted to 0.78 ± 0.05 mg/dL. Further, the “Ca 19.9” value in data set [2] (tumoral marker, individual samples, day 40 after injection of virus) is listed as 27940 U/ml.

These data come from patent US9056133B2, “Pharmaceutical kit and method for treating cancer” (priority 2012, dated 2015).
